Laboratory results: US9315532B2, “Fatty acid carbohydrate hybrid molecules as therapeutic agents and methods thereof” (The Johns Hopkins University, priority 2005, dated 2016)
Entries after “also recorded” stand apart in the source; their conditions may differ.

Legend:
Format in all cases: cell-based, human
p21WAF1/Cip1 promoter = assay: Luc-p21WAF1/Cip1 luciferase reporter gene assay in AD293 (HEK) cells
Procedure: The plasmid Luc-p21^Cip1/WAF1 (a gift from Vogelstein Laboratory, JHMI, Baltimore, Md.) was amplified and purified utilizing a plasmid maxi kit (Cat. No. 12163. Qiagen, Valencia, Calif.) following the manufacturer's protocol. HEK cells (2.5×10^5) were seeded in 3.0 mL medium and grown in 6-well T. C. plates. Transfection was performed using lipofectamine 2000 (Cat. No. 11668-019, Invitrogen, Carlsbad, Calif.) following the protocol supplier's protocol. Cells were trypsinized 24 h after transfection and seeded at 250,000 cells per well with concentrations of 1-4 shown in FIG. 3a or 1, 5, and ManNAc plus 5 at the concentrations shown in FIG. 3c. After 72 h, the cells were trypsinized, counted and lysed in 300 μL of luciferase cell culture lysis buffer and diluted five-fold in the same buffer. Luminometry was performed utilizing the ‘Luciferase Assay System’ (Cat. No. 1500, 4550, Promega, Madison, Wis.) following supplier's protocol. Luciferase Assay Reagent (100 μL) was added to the cell lysate (20 μL) in luminometer tubes (Cat. No. 55.476, Sarstedt, Newton, N.C.) and the luminescence was measured immediately using a Berthold Sirius Luminometer. The final values were normalized relative to ethanol-treated controls and reported on a per cell basis.

caspase-3 activity = assay: Caspase-3 activity assay in Jurkat cells; settings: for increase of caspase-3 activity: 48 h
Description: Such results are consistent with those expected by the compounds herein.

Jurkat cells [1] = assay: Flow cytometry analysis of cell cycle status (PI/RNase A)
Procedure: The cell cycle arrest induced by butyrate analogs was studied following the standard protocol (49). Briefly, Jurkat cells (2.3×10^5 cells/mL) were incubated with various concentrations of 1 (0, 25, 50, 75, 100, 150 and 200 μM); 2 (200 μM); 3 (200 μM); and 4 (200 μM) for five days. The cells were then harvested, counted, washed twice with PBS, re-suspended in PBS (500 μL), added to a cold solution of 78% aqueous ethanol (4.5 mL) using a glass Pasteur pipette and kept at 2.0° C. for at least 24 h. The fixed cells were centrifuged twice to remove the ethanol completely, re-suspended in propidium iodide (PI)/ribonuclease A (RNase A) staining buffer (BD Pharmingen, Catalog No. 550825, San Diego, Calif.) (500 μL for 1.0×10^6 cells), incubated at 37° C. for 15 min and analyzed by flow cytometry. The cellular aggregates were excluded from single cell populations using an area-width plot (FL2—PT fluorescence) for the cell cycle status determination. At least 10,000 gated events were counted for each determination.
Jurkat cells (2.5×10^5 cells/mL) were incubated with either ethanol (0.2%) or 1 (100 μM or 200 μM). Aliquots of cell suspensions were taken on day 0 and days 2-6, washed with PBS (twice) and fixed in 75% ethanol at 2.0° C. for at least 48 h. The cells were stained with PI/RNase staining buffer and analyzed by flow cytometry as given above.

Jurkat cells [2] = assay: Cell viability assay (trypan blue exclusion); settings: 200 μM
Procedure: Jurkat cells (2.0×10^5 cells/mL) were seeded with 1-4 at 200 μM in 6-well T. C. plates. Aliquots of cell suspension (20 μL) were removed on a daily basis diluted with either PBS (20 μL) or trypan blue solution (20 μL) and cell viability was determined by using the standard trypan blue exclusion method; three replicate counts were taken for each condition.

HeLa cells = assay: Morphological changes to HeLa cells
Procedure: The studies on morphological changes induced by sodium butyrate (5) and But4ManNAc (1) were performed following a reported procedure (45). Briefly, HeLa cells (200,000 cells per well in a 6-well plate) were plated and allowed to form monolayers. After 24 h, the supernatant was aspirated, fresh medium (4.0 mL) was added and treated with either ethanol (20 μL (0.5%), control), 5 (5.0 mM), or 1 (250 μM). For the AD 293 (HEK) cells 2.0×10^6 cells in 10 mL of medium (100 mm tissue culture dishes) were plated and treated, immediately after plating, with either ethanol (50 μL, control), 5 (5.0 mM), or 1 (250 μM). Images were acquired at various time intervals under bright field using a Nikon Eclipse TE200 inverted microscope equipped with a DXM 1200 digital camera.

[3] = system: sialic acid biosynthesis in Jurkat cells; assay: Assay for total sialic acid production (periodate-resorcinol); settings: three days
Procedure: Jurkat cells (5.0×10^6 cells in 10 mL medium) were incubated with 1-5 at various concentrations. […] The cell lysates were analyzed by using an adapted version of the periodate-resorcinol assay (36, 59) with the periodic acid oxidation step performed on ice to allow quantification of total (i.e., free monosaccharide plus glycoconjugate-bound) sialic acid. For each assay, a standard curve was obtained using N-acetylneuraminic acid (Pfanstiehl, Waukegan, Ill.) for calibration.

CCCC(=O)OC[C@H]1OC(OC(=O)CCC)[C@@H](NC(C)=O)[C@@H](OC(=O)CCC)[C@@H]1OC(=O)CCC (stereo partly drawn) [compound 1, 2-Acetylamino-2-deoxy-1,3,4,6-tetra-O-butanoyl-α,β-D-mannopyranoside]
concentration level required for p21WAF1/Cip1 activation (p21WAF1/Cip1 promoter): micromolar level efficiency | gain in efficiency for 1 over 5, relative to the ~10× of the endogenous p21 assay (p21WAF1/Cip1 promoter; luc-p21WAF1/Cip reporter assay): even greater | apoptosis by caspase-3 activity assay (caspase-3 activity): dose dependent apoptosis | increase of caspase-3 activity (caspase-3 activity; 25 μM): ~4 fold | increase of caspase-3 activity (caspase-3 activity; 50 μM): ~8 fold | increase of caspase-3 activity (caspase-3 activity; 100 μM): ~14 fold | cell cycle status at lower concentrations (Jurkat cells [1]; Jurkat cells, 0-75 μM, 5 days): stepwise decrease in G0/G1 accumulation with a concomitant increase in cells at the G2/M stage | population of apoptotic cells (DNA content) (Jurkat cells [1]; Jurkat cells, 0-200 μM, five days): dose dependent increase in population of apoptotic cells | cell cycle status, time course (Jurkat cells [1]; Jurkat cells, 100 μM, until day 6): strong cell cycle inhibition at the G2/M stage | cell cycle status, time course (Jurkat cells [1]; Jurkat cells, 200 μM): accumulated more rapidly at the G2/M stage | cell cycle status / apoptosis (Jurkat cells [1]; Jurkat cells, 200 μM, 5 days): majority of cells treated with 1 appeared to be apoptotic | cells with DNA in the sub G0 range (Jurkat cells [1]; Jurkat cells, 200 μM, day 4): substantial proportion | cells with DNA in the sub G0 range (Jurkat cells [1]; Jurkat cells, 200 μM, day 6): almost complete | concentration above which non-viable cells (sub G0) accumulated (Jurkat cells [1]; Jurkat cells, 5 days): exceeded 75 μM | apoptosis versus cell cycle arrest (summary) (Jurkat cells [1]; human cancer cells): efficiently induced apoptosis | reduced cell viability in trypan blue assay (Jurkat cells [2]): exhibited reduced cell viability | morphological changes / differentiation of HeLa cells (HeLa cells; 3 days, 1 at 250 μM, 5 at 5.0 mM): induced differentiation of HeLa cells; also recorded: growth of extended processes | fold lower concentration for cellular responses than sodium n-butyrate (HeLa cells; HeLa cells): ~20 × | total sialic acid [3]: large increase in total sialic acid
